Entries after “also recorded” stand apart in the source; their conditions may differ. Where two headings read alike, the source gives them in different places.

The target of experiment [1] is T1, human VDR (Homo sapiens, UniProt P11473).
T1 construct: made in house; host or cells: E. coli (cell lysate used)
T1 sequence (P11473 127-423 limits assumed): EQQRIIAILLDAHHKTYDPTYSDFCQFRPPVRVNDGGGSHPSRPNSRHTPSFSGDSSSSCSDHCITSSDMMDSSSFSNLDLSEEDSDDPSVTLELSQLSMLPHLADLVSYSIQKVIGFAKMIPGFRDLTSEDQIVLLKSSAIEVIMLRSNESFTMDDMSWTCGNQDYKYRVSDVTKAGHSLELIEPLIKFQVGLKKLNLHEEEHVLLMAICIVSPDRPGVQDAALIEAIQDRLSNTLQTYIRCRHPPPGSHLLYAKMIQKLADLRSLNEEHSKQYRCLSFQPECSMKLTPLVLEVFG
The experiment in a line: VDR binding affinity, split-luciferase vitamin D biosensor. The settings on record: for Relative binding affinity: normalized to that of 1; for VDR binding affinity (in words): comparison between compounds, Fig. 3a. How it is done:
The binding affinity of each compound for the human VDR was evaluated as described previously[10],[19]. In brief, 49 μL of cell lysate derived from recombinant E. coli expressing split-luciferase vitamin D biosensor protein was added to individual wells of a 96-well plate. Next, 1 μL of ethanol solution of each compound at appropriate concentrations was added to each well and incubated for 30 min at 25 °C. Subsequently, 50 μL of the Luciferin solution containing 20 mM of MgSO4, 2 mM of D-luciferin, and 4 mM of adenosine triphosphate in 25 mM Tris–HCl (pH 7.4) was introduced into each well and incubated for 30 min at 25 °C. The luminescence (photon counts) was measured using a luminometer (Infinite 200 Pro 96-microplate luminometer, Tecan, Switzerland). […] X values were calculated using the following equation: X=10^logA/B×50-C/D-C+logB.
In this equation, A and B correspond to concentrations near 50% of the maximum relative light intensity. C and D represent the relative light intensity (%) at concentrations B and A, respectively.

In experiment [2] the test system is RAW264.7 cells. The experiment in a line: Osteoclastic differentiation-promoting activity (TRAP-positive multinucleated osteoclasts). Type of experiment: cell-based. The settings on record: sRANKL 100 ng/mL, 4 days; relative to 50 μM 1, Fig. 4. How it is done:
RAW264.7 cells were used as pre-osteoclastic cells. Cells were cultured in α-MEM medium containing 10% fetal bovine serum, 2 mM L-glutamine, 100 U/mL penicillin, and 100 μg/mL streptomycin. Osteoclastic differentiation was induced following treatment with 100 ng/mL sRANKL (Oriental Yeast, Japan), and each sample was added to the medium and incubated for 4 days with 5% CO2 at 37 °C. Cells were fixed in 10% glutaraldehyde for 15 min at 37 °C and subsequently incubated for 10 min at 37 °C in tartrate-resistant acid phosphatase (TRAP) buffer, containing 0.1 M sodium acetate, 0.1 M acetic acid, 10 mg/mL naphthol AS-MX phosphate, 0.1% Triton X-100, 0.3 M potassium tartrate, and 0.3 mg/mL Fast Red Violet LB Salt. TRAP-positive dark-red cells with more than three nuclei were manually counted under a light microscope (20× objective) as multinucleated osteoclasts. Y-27632[22] was used as a positive control.

Setting [3] is: split-luciferase biosensor lysate, 25 °C, mean ± SD of at least triplicate determinations, read-out: Concentration at 50% maximum light intensity.

`C=C1CCC(O)CC1=CC=C1CCCC2(C)C1CCC2C(C)CCCC(C)(C)O` (stereo not shown) [VD-II, 25-hydroxyvitamin D3, reference compound]: the Relative binding affinity in experiment [1] is 1510. For the same compound, the EC50 in experiment [1] (setting [3]) was 0.074 ± 0.015 µM.

On to `C=C1CCCC(C)(C)[C@@H]1CC/C(C)=C/CC[C@@H]1[C@@]2(C)CCCC(C)(C)[C@@H]2CC[C@@]1(C)O` [compound 1, ambrein], for which the EC50 in experiment [1] (Fig. 2b, Table S1, read-out: EC50 value (VDR binding affinity)) worked out at 112 ± 29 µM. This compound also registered a Relative binding affinity in experiment [1] of 1.

`CC(C)=CCC/C(C)=C/CC/C(C)=C/CC[C@@H]1[C@@]2(C)CCCC(C)(C)[C@@H]2CC[C@@]1(C)O` [compound 3] returned a Relative binding affinity in experiment [1] of 0.88. The EC50 in experiment [1] (setting [3]) turned out to be 128 ± 38 µM. Moreover, the “osteoclastic differentiation-promoting activity (in words)” value in experiment [2] is on record as “no activity”.

In the case of `C=C1CCCC(C)(C)C1CC/C(C)=C/CC/C=C(\C)CC/C=C(\C)CCC=C(C)C` (stereo not shown) [compound 4], in experiment [1] (100 μM, relative light intensity compared to control (1% ethanol)), the “relative intensity at a concentration of 100 μM” value came out at 0.82 ± 0.07. Besides, the “VDR binding affinity (in words)” value in experiment [1] was “did not bind to the VDR; also recorded: very low VDR binding affinity”.

Turning to `C=C1CC[C@H]2C(C)(C)CCC[C@]2(C)[C@H]1CC[C@@H]1[C@@]2(C)CCCC(C)(C)[C@@H]2CC[C@@]1(C)O` [compound 6], in experiment [1], the “VDR binding affinity (in words)” value was “tenfold higher than that of 1” and the Relative binding affinity is on record as 10. Further, the EC50 in experiment [1] (setting [3]) is 11.1 ± 1.5 µM. The “osteoclastic differentiation-promoting activity (in words)” value in experiment [2] is “not comparable to that of 1”.

In turn, `C/C(=C\CC[C@@H]1[C@@]2(C)CCCC(C)(C)[C@@H]2CC[C@@]1(C)O)CC[C@H]1C(C)(C)CCC[C@]1(C)O` [compound 10] had a Relative binding affinity in experiment [1] of 4.6. For the same compound, in experiment [1] (setting [3]), the EC50 is 24.6 ± 8.2 µM.

On to `CC1=CC[C@H]2C(C)(C)CCC[C@]2(C)[C@H]1CC[C@@H]1[C@@]2(C)CCCC(C)(C)[C@@H]2CC[C@@]1(C)O` [compound 11], for which, in experiment [1], the “VDR binding affinity (in words)” value is “higher affinity than 10 and 15”; the Relative binding affinity is 8.9. The EC50 in experiment [1] (setting [3]) turned out to be 12.6 ± 2.1 µM.

`C=C1CCCC(C)(C)[C@@H]1CC/C(C)=C/CC[C@H]1C(=C)CC[C@H]2C(C)(C)CCC[C@]12C` [compound 13]: in experiment [1], the “VDR binding affinity (in words)” value was “higher affinity than 10 and 15”; the Relative binding affinity turned out to be 7.0. The EC50 in experiment [1] (setting [3]) was 16 ± 2.2 µM.

Regarding `C=C1CC[C@H]2C(C)(C)[C@@H](O)CC[C@]2(C)[C@H]1CC[C@@H]1[C@@]2(C)CCCC(C)(C)[C@@H]2CC[C@@]1(C)O` [compound 14], the “VDR binding affinity (in words)” value in experiment [1] was “higher affinity than 10 and 15”. Further, the EC50 in experiment [1] (setting [3]) is 13.9 ± 2.5 µM.

For the compound `C=C1CC[C@H](O)C(C)(C)[C@@H]1CC/C(C)=C/CC[C@@H]1[C@@]2(C)CCCC(C)(C)[C@@H]2CC[C@@]1(C)O` [compound 15], the Relative binding affinity in experiment [1] turned out to be 2.5. The EC50 in experiment [1] (setting [3]) came to 45.2 ± 17.1 µM.

(Values after publication PMC10792010, “Analysis of vitamin D receptor binding affinities of enzymatically synthesized triterpenes including ambrein and unnatural onoceroids” (Scientific Reports, 2024).)
